Data reported in ChEMBL document CHEMBL1201862, “PubChem BioAssay data set” (2004).
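Following 48 hours of exposure in 96-well plates, responses at five concentrations were used to interpolate endpoints linearly. At the GI50, growth is halved.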 Active and inactive are the calls of the source. Cut-off read from the data, not from the text of the source: active = GI50 up to about 1.1 µM and inactive = higher.

Columns and labels:
Experiment in all cases: NCI anticancer screen, dose series, 48 h
SF-295 = system: SF-295
BT-549 = system: BT-549
NCI/ADR-RES = system: NCI/ADR-RES
A498 = system: A498
MDA-MB-435 = system: MDA-MB-435
SK-OV-3 = system: SK-OV-3
UACC-62 = system: UACC-62
SR = system: SR
OVCAR-8 = system: OVCAR-8
OVCAR-3 = system: OVCAR-3
SF-539 = system: SF-539
MDA-N = system: MDA-N
HCT-15 = system: HCT-15
SW-620 = system: SW-620
RXF 393 = system: RXF 393
A549 = system: A549
HCT-116 = system: HCT-116
HT-29 = system: HT-29
U-251 = system: U-251
Hs-578T = system: Hs-578T
UACC-257 = system: UACC-257
CAKI-1 = system: CAKI-1
Malme-3M = system: Malme-3M
MOLT-4 = system: MOLT-4
KM12 = system: KM12
NCI-H23 = system: NCI-H23
DU-145 = system: DU-145
OVCAR-5 = system: OVCAR-5
SK-MEL-5 = system: SK-MEL-5
T47D = system: T47D
HCC 2998 = system: HCC 2998
TK-10 = system: TK-10
SF-268 = system: SF-268
SN12C = system: SN12C
SNB-19 = system: SNB-19
MDA-MB-231 = system: MDA-MB-231
SK-MEL-2 = system: SK-MEL-2
SK-MEL-28 = system: SK-MEL-28
NCI-H226 = system: NCI-H226
IGROV-1 = system: IGROV-1
M14 = system: M14
EKVX = system: EKVX
RPMI-8226 = system: RPMI-8226
NCI-H522 = system: NCI-H522
CCRF-CEM = system: CCRF-CEM
LOX IMVI = system: LOX IMVI
HOP-92 = system: HOP-92
HOP-62 = system: HOP-62
PC-3 = system: PC-3
MCF7 = system: MCF7
SNB-75 = system: SNB-75
786-0 = system: 786-0
ACHN = system: ACHN
UO-31 = system: UO-31
COLO 205 = system: COLO 205
OVCAR-4 = system: OVCAR-4
K562 = system: K562
NCI-H460 = system: NCI-H460
HL-60 = system: HL-60

O=C(/C=C/c1ccccc1)OCC1=C[C@@H](O)[C@@H]2C=CO[C@@H](OC3OC(CO)C(O)C(O)C3O)[C@H]12 (some centres undefined)
GI50 (SF-295): > 100 µM (inactive)
GI50 (BT-549): > 100 µM (inactive)
GI50 (NCI/ADR-RES): > 100 µM (inactive)
GI50 (A498): > 100 µM (inactive)
GI50 (MDA-MB-435): > 100 µM (inactive)
GI50 (SK-OV-3): > 100 µM (inactive)
GI50 (UACC-62): > 100 µM (inactive)
GI50 (SR): > 100 µM (inactive)
GI50 (OVCAR-8): > 100 µM (inactive)
GI50 (OVCAR-3): > 100 µM (inactive)
GI50 (SF-539): > 100 µM (inactive)
GI50 (MDA-N): > 100 µM (inactive)
GI50 (HCT-15): > 100 µM
GI50 (SW-620): > 100 µM (inactive)
GI50 (RXF 393): > 100 µM (inactive)
GI50 (A549): > 100 µM (inactive)
GI50 (HCT-116): > 100 µM (inactive)
GI50 (HT-29): > 100 µM (inactive)
GI50 (U-251): > 100 µM (inactive)
GI50 (Hs-578T): > 100 µM (inactive)
GI50 (UACC-257): > 100 µM (inactive)
GI50 (CAKI-1): > 100 µM (inactive)
GI50 (Malme-3M): > 100 µM (inactive)
GI50 (MOLT-4): > 100 µM (inactive)
GI50 (KM12): > 100 µM (inactive)
GI50 (NCI-H23): > 100 µM (inactive)
GI50 (DU-145): > 100 µM (inactive)
GI50 (OVCAR-5): > 100 µM (inactive)
GI50 (SK-MEL-5): > 100 µM (inactive)
GI50 (T47D): > 100 µM (inactive)
GI50 (HCC 2998): > 100 µM (inactive)
GI50 (TK-10): > 100 µM (inactive)
GI50 (SF-268): > 100 µM (inactive)
GI50 (SN12C): > 100 µM (inactive)
GI50 (SNB-19): 95.9 µM (inactive)
GI50 (MDA-MB-231): > 100 µM (inactive)
GI50 (SK-MEL-2): > 100 µM (inactive)
GI50 (SK-MEL-28): > 100 µM (inactive)
GI50 (NCI-H226): > 100 µM (inactive)
GI50 (IGROV-1): > 100 µM (inactive)
GI50 (M14): > 100 µM (inactive)
GI50 (EKVX): > 100 µM (inactive)
GI50 (RPMI-8226): > 100 µM (inactive)
GI50 (NCI-H522): > 100 µM (inactive)
GI50 (CCRF-CEM): > 100 µM (inactive)
GI50 (LOX IMVI): > 100 µM (inactive)
GI50 (HOP-92): > 100 µM (inactive)
GI50 (HOP-62): > 100 µM (inactive)
GI50 (PC-3): > 100 µM (inactive)
GI50 (MCF7): > 100 µM (inactive)
GI50 (SNB-75): > 100 µM (inactive)
GI50 (786-0): > 100 µM (inactive)
GI50 (ACHN): > 100 µM (inactive)
GI50 (UO-31): > 100 µM (inactive)
GI50 (COLO 205): > 100 µM (inactive)
GI50 (OVCAR-4): 67.6 µM (inactive)

O=C1c2cc3c(cc2CC1Br)CCC3 (centres undefined)
GI50 (SF-295): 5.19 µM (inactive)
GI50 (BT-549): 1.96 µM (inactive)
GI50 (NCI/ADR-RES): 4.14 µM (inactive)
GI50 (A498): 18.1 µM (inactive)
GI50 (MDA-MB-435): 1.99 µM (inactive)
GI50 (K562): 1.39 µM (inactive)
GI50 (SK-OV-3): 7.73 µM (inactive)
GI50 (UACC-62): 3.3 µM (inactive)
GI50 (SR): 0.787 µM (active)
GI50 (OVCAR-8): 1.98 µM (inactive)
GI50 (OVCAR-3): 2.03 µM (inactive)
GI50 (SF-539): 2.03 µM (inactive)
GI50 (MDA-N): 1.82 µM (inactive)
GI50 (NCI-H460): 12.1 µM (inactive)
GI50 (HCT-15): 1.96 µM
GI50 (SW-620): 1.42 µM (inactive)
GI50 (RXF 393): 1.83 µM (inactive)
GI50 (A549): 18.2 µM (inactive)
GI50 (HCT-116): 1.53 µM (inactive)
GI50 (HT-29): 2.36 µM (inactive)
GI50 (U-251): 3.26 µM (inactive)
GI50 (Hs-578T): 4.06 µM (inactive)
GI50 (UACC-257): 2.23 µM (inactive)
GI50 (CAKI-1): 1.71 µM (inactive)
GI50 (Malme-3M): 1.01 µM (active)
GI50 (MOLT-4): 0.953 µM (active)
GI50 (KM12): 7 µM (inactive)
GI50 (NCI-H23): 3 µM (inactive)
GI50 (DU-145): 16 µM (inactive)
GI50 (OVCAR-5): 5.64 µM (inactive)
GI50 (SK-MEL-5): 1.18 µM (inactive)
GI50 (T47D): 2.39 µM (inactive)
GI50 (HCC 2998): 5.64 µM (inactive)
GI50 (TK-10): 2.75 µM (inactive)
GI50 (SF-268): 4.41 µM (inactive)
GI50 (SN12C): 1.7 µM (inactive)
GI50 (SNB-19): 12.4 µM (inactive)
GI50 (MDA-MB-231): 4.47 µM (inactive)
GI50 (SK-MEL-2): 1.98 µM (inactive)
GI50 (SK-MEL-28): 3.1 µM (inactive)
GI50 (NCI-H226): 3.36 µM (inactive)
GI50 (IGROV-1): 2.86 µM (inactive)
GI50 (M14): 1.45 µM (inactive)
GI50 (EKVX): 14.6 µM (inactive)
GI50 (RPMI-8226): 1.82 µM (inactive)
GI50 (NCI-H522): 1.45 µM (inactive)
GI50 (CCRF-CEM): 0.405 µM (active)
GI50 (LOX IMVI): 0.369 µM (active)
GI50 (HL-60): 2.9 µM (inactive)
GI50 (HOP-62): 13.8 µM (inactive)
GI50 (PC-3): 3.28 µM (inactive)
GI50 (MCF7): 2.07 µM (inactive)
GI50 (SNB-75): 2.93 µM (inactive)
GI50 (786-0): 1.8 µM (inactive)
GI50 (ACHN): 3.8 µM (inactive)
GI50 (UO-31): 10.6 µM (inactive)
GI50 (COLO 205): 1.97 µM (inactive)
GI50 (OVCAR-4): 1.85 µM (inactive)
